Measured values as given in US20070092587A1, “Extract from plant of japanese parsley family and process for producing the same” (priority 2004, published 2007).

Columns and labels:
[1] = tested on: Preadipocyte cell line 3T3-L1; test: Induction of differentiation into adipocytes (amount of triglyceride biosynthesis); type: cell-based; conditions: for induction of biosynthesis of triglyceride (inducing action on differentiation into mature adipocytes): isolated compounds at final 1-30 μM, seven days after addition
Method: The induction of differentiation into adipocytes was carried out by partially modifying the method of Rubin C. S. et al. (J. Biol. Chem., Vol. 253, No. 20, p7570-7578 (1978)). Preadipocyte cell line 3T3-L1 (ATCC CCL-92.1) was suspended in a 10% fetal bovine serum (manufactured by GIBCO)-containing Dulbecco's modified Eagle's medium (manufactured by Sigma, D6046) containing 200 μM ascorbic acid (hereinafter referred to as A-D-MEM medium) so as to have a density of 4×10^3 cells/mL, and the suspension was put in each well of a 12-well microtiter plate in an amount of 2 mL per well. The cells were cultured at 37° C. for 7 days in the presence of 5% carbon dioxide gas. The medium was exchanged with the same medium on the second day and the fourth day. On the seventh day, the medium was exchanged with A-D-MEM medium containing 0.25 μM dexamethasone. […] Here, there were set a group with addition of 4 μL of a 5 mg/mL aqueous solution of insulin (manufactured by TAKARA BIO INC.) as a positive control, and a group with addition of dimethyl sulfoxide as a negative control. After 45 hours, the medium was exchanged with A-D-MEM medium. […] The cells were cultured for additional 7 days.
The amount of triglyceride in the adipocytes was determined as an index for inducing differentiation into matured adipocytes, and as evaluation of insulin-mimetic action. After the termination of the culture, the medium was removed, and the cells were washed twice with a phosphate buffered saline. One milliliter of a solvent of hexane: isopropanol=3:2 was added thereto. The mixture was allowed to stand at room temperature for 30 minutes, and thereafter the supernatant was collected. The procedures were repeated again, and 2 mL of the resulting supernatant was concentrated to dryness. The precipitate was dissolved in 100 μL of isopropanol, and thereafter the amount of triglyceride contained in 10 μL of the resulting solution was determined with Triglyceride E-Test (manufactured by Wako Pure Chemical Industries, Ltd., code 432-40201). All of the determinations were carried out twice.
Specifically, as a sample, there was set a group with addition of the dimethyl sulfoxide solution of the extract from the root portion of Angelica keiskei koidz. with the 40% aqueous ethanol solution at a final concentration of 0.1% or 0.033%, the dimethyl sulfoxide solution of the extract from the root portion of Angelica keiskei koidz. with the 50% aqueous ethanol solution at a final concentration of 0.033% or 0.011%, the dimethyl sulfoxide solution of the extract from the root portion of Angelica keiskei koidz. with the 70% aqueous ethanol solution at a final concentration of 0.022%, the dimethyl sulfoxide solution of the extract from the root portion of Angelica keiskei koidz. with the 60% or 80% aqueous ethanol solution or the dimethyl sulfoxide solution of the extract with the 100% ethanol so as to have a final concentration of 0.067% or 0.022%, respectively, to each well. Here, there were set a group with addition of 4 μL of a 5 mg/mL aqueous solution of insulin (manufactured by TAKARA BIO INC.) as a positive control, and a group with addition of dimethyl sulfoxide as a negative control. Thereafter, the medium and the sample were exchanged in the same manner as in the method described in Example 5, and after seven days from the addition of the sample, the amount of triglyceride in the adipocytes was determined.
Here, there were set a group with addition of 4 μL of a 5 mg/mL aqueous solution of insulin (manufactured by TAKARA BIO INC.) as a positive control, and a group with addition of dimethyl sulfoxide as a negative control. Thereafter, the medium and the sample were exchanged in the same manner as in the method described in Example 5, and after seven days from the addition of the sample, the amount of triglyceride in the adipocytes was determined.

[2] = tested on: mature adipocytes (3T3-L1 cells); test: Enhancing action on glucose uptake (2-deoxyglucose uptake) into mature adipocytes; type: cell-based; conditions: insulin 1 μg/mL positive control, compared to negative control
Method: The induction of differentiation into mature adipocytes was carried out by partially modifying the method of Rubin C. S. et al. 3T3-L1 cells were suspended in a 10% fetal bovine serum-containing Dulbecco's modified Eagle's medium containing 200 μM ascorbic acid so as to have a density of 4×10^3 cells/mL, and the suspension was put in each well of a 12-well microtiter plate in an amount of 2 mL per well. The cells were cultured at 37° C. for 7 days in the presence of 5% carbon dioxide gas. On the seventh day, the medium was exchanged with 2 mL of a 10% fetal bovine serum-containing Dulbecco's modified Eagle's medium containing 200 μM ascorbic acid, 0.25 μM dexamethasone, 10 μg/mL insulin and 0.5 mM 3-isobutyl-1-methylxanthine (manufactured by Nacalai Tesque, Inc., 19624-44). After 45 hours, the medium was exchanged with 2 mL of a 10% fetal bovine serum-containing Dulbecco's modified Eagle's medium containing 200 μM ascorbic acid and 5 μg/mL insulin. The medium was exchanged on after 2 days and 4 days, and the cells were cultured for 7 days, to give mature adipocytes.
As the evaluation of enhancing action on glucose uptake, and also as the evaluation of insulin-mimetic action, the amount of 2-deoxyglucose uptake into mature adipocytes stimulated with the sample ([…]) in the adipocytes was determined.
After the termination of the culture, the medium was removed, and the cells were washed twice with a 0.1% (w/v) bovine serum albumin (manufactured by Sigma, A8022)-containing Dulbecco's modified Eagle's medium. Thereafter, 1 mL of the […] ethanol solution at a final concentration of 0.1%, 0.067%, or 0.022%, […] solution at a final concentration of 0.2%, 0.067%, or 0.022%, […] ethanol solution or the dimethyl sulfoxide solution of the extract from the root portion of Angelica keiskei koidz. with the 100% ethanol so as to have a final concentration of 0.067% or 0.022%, each extract being prepared in Example 4, was put to each well. The cells were cultured overnight at 37° C. in the presence of 5% carbon dioxide gas. Here, a group without addition of the sample was set as a negative control. After the overnight culture, the cells were washed twice with a HEPES buffered saline (140 mM NaCl, 5 mM KCl, 2.5 mM MgSO4, 1 mM CaCl2, 20 mM HEPES-Na (pH 7.4)), and 0.9 mL of the […] ethanol solution at a final concentration of 0.1%, 0.067%, or 0.022%, […] solution at a final concentration of 0.2%, 0.067%, or 0.022%, […] ethanol solution or the dimethyl sulfoxide solution of the extract from the root portion of Angelica keiskei koidz. with the 100% ethanol so as to have a final concentration of 0.067% or 0.022%, was added thereto. The cells were cultured at 37° C. for 75 minutes. At the point when 45 minutes passed, there was set in a well without addition of the sample a group with addition of insulin so as to have a final concentration of 1 μg/mL as a positive control. Thereafter, 100 μL of a HEPES buffered saline containing 0.5 μCi/mL 2-deoxy-[1,2-^3H(N)]-glucose (manufactured by PerkinElmer Life Sciences Inc., NET549A) and 1 mM 2-deoxyglucose (manufactured by Nacalai Tesque, Inc., 10722-11) was added thereto, and the cells were further cultured at 37° C. for 10 minutes. […] The radioactivity was determined with a liquid scintillation counter LS6500 (manufactured by Beckmann) using 25 μl of the supernatant with Ultima Gold (manufactured by PerkinElmer Life Sciences Inc., 6013329) as a scintillation cocktail. […]

aldose reductase = aldose reductase (Homo sapiens, UniProt P15121); conditions: clarified in WO 2004/031165; cited from earlier work
[3] = biological target: T1, human muscle cell-derived aldose reductase (Homo sapiens, UniProt P15121); test: Inhibitory action for aldose reductase (change in NADPH absorbance at 340 nm, methylglyoxal substrate); type: biochemical
T1 construct: purchased Wako Pure Chemical Industries, Ltd
Method: Inhibitory action for aldose reductase of the extract from the root portion of Angelica keiskei koidz. was determined in accordance with the following method. As a sample, 20 μL of a 100 mM methylglyoxal solution was added to 10 μL of each of the kinds of ethanol extracts from the root portion of Angelica keiskei koidz. prepared in Example 4, and 10 μL of the water extract from the root portion of Angelica keiskei koidz. prepared in Preparation Example 1 (a solution prepared by dissolving the extract in a 50% aqueous dimethyl sulfoxide solution), 100 μL of 0.2 M phosphate buffer (pH 6.2), 20 μL of 1 mM NADPH (phosphate buffer), and 10 μL of a human muscle cell-derived aldose reductase solution (0.1 U/mL, manufactured by Wako Pure Chemical Industries, Ltd., phosphate buffer). For a period of 180 seconds after 30 seconds passed, the change in absorbance of NADPH at 340 nm was determined. As a negative control, a 50% aqueous dimethyl sulfoxide solution was used in place of the sample. Also, the absorbance was determined using distilled water as a blank solution for each sample in place of the methylglyoxal solution. The determination values were expressed as an average of two experimental values. The inhibitory ratio (%) for aldose reductase was calculated in accordance with the following formula: Inhibitory Ratio (%)=[1−(ΔAs−ΔAsb)/(ΔAc−ΔAcb)]×100, wherein ΔAs and ΔAc show a change in the absorbance of each of the sample solution and the negative control solution per minute; and ΔAsb and ΔAcb show a change in the absorbance of the blank solutions for the sample solution and the negative control solution per minute.
The inhibitory activity for aldose reductase of the extract from the leaf and stem portions of Angelica keiskei koidz. prepared in Example 3 was determined in the same manner as in Example 8.

[4] = isolated compounds at final 3-30 μM

Molecule | induction of biosynthesis of triglyceride (inducing action on differentiation into mature adipocytes) [1] | enhancement of 2-deoxy-[1,2-3H(N)]-glucose uptake [2, 4] | inhibitory actions for aldose reductase (aldose reductase) | induction of triglyceride biosynthesis (activity of inducing differentiation into adipocytes) ([1]; leaf and stem extracts (Example 3) at final 0.011-0.2%, insulin positive control, compared to dimethyl sulfoxide group) | enhancement of 2-deoxy-[1,2-3H(N)]-glucose uptake ([2]; root extracts (Example 4) at final 0.022-0.2%) | Inhibitory Ratio (%) of Aldose Reductase ([3]; 2.5 μM) [%] | Inhibitory Ratio (%) of Aldose Reductase ([3]; 5 μM) [%] | Inhibitory Ratio (%) of Aldose Reductase ([3]; 10 μM) [%] | Inhibitory Ratio (%) of Aldose Reductase ([3]; 20 μM) [%] | Inhibitory Ratio (%) of Aldose Reductase ([3]; 40 μM) [%]
COc1ccc(C(=O)/C=C/c2ccc(O)cc2)c(O)c1CC=C(C)C [4-hydroxyderricin] | induction of biosynthesis of triglyceride was found | enhancement of 2-deoxy-[1,2-^3H(N)]-glucose uptake was found | – | – | – | – | – | – | – | –
CC12CCC(O)C(C)(C)C1Cc1c(O)ccc(C(=O)/C=C/c3ccc(O)cc3)c1O2 (stereo not shown) [TB1] | induction of biosynthesis of triglyceride was found | – | inhibitory actions for aldose reductase are found | – | – | – | – | – | – | –
insulin: insulin (manufactured by TAKARA BIO INC.), positive control [reference compound] | – | enhancement of 2-deoxy-[1,2-^3H(N)]-glucose uptake was found | – | induction of triglyceride biosynthesis could be also confirmed | enhancement of 2-deoxy-[1,2-^3H(N)]-glucose uptake was found | – | – | – | – | –
CC(C)=CCCC1(C)Oc2c(C(=O)/C=C/c3ccc(O)cc3)ccc(O)c2CC1O (stereo not shown) [TB2] | induction of biosynthesis of triglyceride was found | – | inhibitory actions for aldose reductase are found | – | – | – | – | – | – | –
xanthoangelol H | induction of biosynthesis of triglyceride was found | enhancement of 2-deoxy-[1,2-^3H(N)]-glucose uptake was found | – | – | – | 40.4 | 57.8 | 72.2 | 80.8 | –
CC(C)=CCC/C(C)=C/Cc1c(O)ccc2c1O[C@H](c1ccc(O)cc1)CC2=O [Prostratol F, prostratol F] | induction of biosynthesis of triglyceride was found | – | – | – | – | 27.4 | 46.3 | 57.1 | 61.4 | –
bavachromanol | – | – | – | – | – | 42.1 | 58.2 | 70.5 | 80.1 | –
CC(C)=CCc1c(O)ccc(C(=O)/C=C/c2ccc(O)cc2)c1O [Isobavachalcone, isobavachalcone] | induction of biosynthesis of triglyceride was found | enhancement of 2-deoxy-[1,2-^3H(N)]-glucose uptake was found | – | – | – | – | – | 30.2 | 47.4 | 60.1
COc1ccc2c(c1CC=C(C)C)O[C@H](c1ccc(O)cc1)CC2=O [Munduleaflavanone A, munduleaflavanone A] | induction of biosynthesis of triglyceride was found | – | – | – | – | 38.5 | 54.6 | 68.5 | 73.8 | –
